Data taken from patent US20230346654A1, “Anhydrous Urea Emulsions” (BAEK CLINICAL INC., priority 2020, published 2023).
Read-outs that look alike come from different tables or passages of the source. Values belong to the molecule of their own block, whether it stands above or below them.

Experiments:
[1] = Assessment of solvents: gentleness or irritation on skin; conditions: applied to skin; 1,3-propanediol even applied neat, or at 100% concentration
From the text: (§1) AA refers to L-ascorbic acid. U refers to urea. % values are wt %.

[2] = Assessment of solvents: ability to solubilize urea; conditions: neat solvent
[3] = Solubility of optional additional components in non-aqueous solvents; assay type: physicochemical
From the text: as §1

[4] = in most solvents; cited from earlier work
[5] = stated as well-known; cited from earlier work
[6] = concentrations of 0.2%; cited from earlier work
[7] = in vivo; cited from earlier work

Molecule: OCCCO [1,3-propanediol]
- gentleness on skin [1]: gentleness on skin

Molecule: CC(O)CCO (stereo not drawn) [1,3-butanediol]
- gentleness on skin [1]: relatively gentle on skin

- ability to solubilize urea [2]: moderate
Molecule: OCCCCCO [1,5-pentanediol]

- ability to solubilize urea [2]: moderate
Molecule: OCC(O)CO [Glycerin, glycerol (1,2,3-propanetriol)]

- solubility ([3]; in 1,3-propanediol): shows solubility
Molecule: CC1(C)[C@@H](O[C@H]2O[C@H](C(=O)O)[C@@H](O)[C@H](O)[C@H]2O[C@@H]2O[C@H](C(=O)O)[C@@H](O)[C@H](O)[C@H]2O)CC[C@]2(C)[C@H]3C(=O)C=C4[C@@H]5C[C@@](C)(C(=O)O)CC[C@]5(C)CC[C@@]4(C)[C@]3(C)CC[C@@H]12 [glycyrrhizic acid, Glycyrrhizic acid]

- solubility ([3]; in 1,3 propanediol, 1,2 propanediol and 1,3 butanediol at 0.5-1%): readily soluble
Molecule: COc1cc(CC(C(C)=O)C(C)=O)ccc1O [Acetyl zingerone]

- concentration that can be solubilized ([3]; in 1,3 propanediol): up to 10%
- change of solubility in 1,3 propanediol ([3]; in the presence of hydroxyethyl urea): slightly increased
- concentration that can be solubilized ([3]; with 10% AA, 5% U in a 1,3 propanediol base): 7.5%
Molecule: O=C(O)CCCCCCCC(=O)O [AzA, Azelaic acid, reference compound]
- solubility [4]: very poorly soluble

- ability to solubilize urea [2]: moderate
Molecule: CC(O)CO (stereo not drawn) [1,2-propanediol]
- skin irritation and sensitivity [5]: inducing skin irritation and sensitivity

- ability to solubilize urea [2]: moderate
Molecule: OCC(O)COCC(O)CO (stereo not drawn) [diglycerin]

- solubility ([3]; at a concentration of 0.2% in 1,3 propanediol, 1,2 propanediol and 1,3 butanediol): soluble
Molecule: Madecassoside
- ability to reduce erythema (skin redness) [6]: desirable ability to reduce erythema

- ability to solubilize urea [2]: moderate
Molecule: CCCCC(O)CO (stereo not drawn) [1,2-hexanediol]

Molecule: CC(C)(CO)[C@@H](O)C(=O)NCCCO [Panthenol]
- concentration at which inhibition of transepidermal water loss is apparent [7]: ≥ 1%

Molecule: CO[C@H]1CO[C@H]2[C@@H]1OC[C@H]2OC [Dimethyl isosorbide]
- ability to solubilize urea [2]: very limited
